Series [1] is described as follows: AMES testing (genotoxicity). To be noted: trans isomer of HCFO-1233zd compared with the cis isomer. The series is classed as cell-based.
The nature of series [2]: Solubility experiments: vapor pressure of blowing agent in polyol in a pressure vessel. Type of series: physicochemical. The procedure:
The vapor pressure of a foam blowing agent in polyurethane materials was evaluated in an experimental apparatus consisting of a pressure vessel with magnetic stirring, a pressure transducer and a temperature transducer. The temperature inside the vessel was controlled within 0.1° C. and the pressure controlled to within 0.1%.
Into the pressure vessel (volume about 100 ml), 50 g of polyol was loaded. The vessel was then placed under vacuum to remove air. The change of pressure in the metal cylinder was monitored to ensure that there were no leaks. The blowing agent was introduced into the vessel by the use of a specially designed gas syringe. The amount of blowing agent loaded was verified by measuring the weight of the syringe before and after introduction. The temperature of the vessel was maintained at 50° C. (above the boiling point of the blowing agents being tested) and the speed of the shaker was maintained at 300 rpm. The vapor pressure of the blowing agent was recorded as a function of the time. Sufficient time was allowed for the system to reach equilibrium. After reaching equilibrium, the amount of blowing agent dissolved in the polyol was calculated as the difference between the added blowing agent […] and the blowing agent present in the gas phase of the vessel.
Then another small amount of blowing agent was added in the vessel. The procedure was repeated several times until the pressure in the vessel was equal to the liquid-gas equilibrium vapor pressure of the blowing agent at this temperature (maximum attainable pressure at temperatures below the critical temperature of the blowing agent).

The conditions of series [3]: known to the people skilled in the art; cited from earlier work.

The structures appear in SMILES notation. Where two headings read alike, the source gives them in different places.

Regarding `FC(F)(F)/C=C/Cl` [E-HCFO-1233zd], the “genotoxicity in AMES testing” value in series [1] is recorded as “significantly lower genotoxicity”. Moreover, the “area between the polyether polyol and polyester polyol curves (range of solubilities)” value in series [2] (compared with HCFC141b and HFC245fa, 50° C.) is recorded as “significantly larger”. Moreover, the “solubility relative to current blowing agents” value in series [2] (polyether polyol and polyester polyol, 50° C.) is listed as “solubility comparable to current blowing agents”. Also, the “solubility curves (vapor pressure versus part of blowing agent per 100 part of polyol by weight)” value in series [2] (polyether polyol and polyester polyol, 50° C., FIG. 1) was “between those for HFC245fa and HCFC141b”.

With `FC(F)(F)/C=C/Cl` [HCFO-1233zd, trifluoro-monochloropropenes], in series [2] (different ratios of polyether polyols and polyester polyols, benchmarked against HCFC141b and HFC245fa), the solubility in polyols result was “falls in between HFC245fa and HCFC141b”.

`FC(F)CC(F)(F)F` [HFC245fa]: the solubility in polyols entry in series [3] is “relatively less soluble”.

The values above are taken from patent publication US20120145955A1, “COMPOSITION OF HCFO-1233zd AND POLYOL BLENDS FOR USE IN POLYURETHANE FOAM” (Arkema Inc., priority 2009, published 2012).
